Measured values taken from patent publication US20060111289A1, “Compositions and methods of using Alpha-fetoprotein growth inhibitory peptides” (Serometrix, LLC,, priority 2004, published 2006).
Where a SMILES comes first, the peptide text is derived from it.

Legend:
MCF-7 cells = test: MCF-7 cell proliferation assay (8 days, sulforhodamine B); assay type: cell-based, human
Experimental: MCF-7 cells were seeded at 25,000 cells/well in 48 well microtiter plates, and incubated for eight days in the various test and control reagents. […] Tumor cells were fixed after 8 days and analyzed for proliferation using the standard sulfarhodamine B staining procedure.

[1] = system: cell cycle gene mRNA in MCF-7 cells; test: Quantitative RT-PCR of cell cycle gene mRNA in MCF-7 cells; assay type: cell-based, human; settings: for Cyclin E1 mRNA levels, Fold Decrease: eight day treatment
Experimental: MCF-7 cell cultures grown in charcoal-stripped medium for 24 hours were seeded in 6-well plates and allowed to attach for 24 hours before treatment with 1×10^−7M of the cyclic, linear, or scrambled peptide, or a vehicle control for either 24 or 48 hours. Total RNA was isolated using TriReagent (Molecular Research Center Inc.) and quantified using the Genequant Pro (Ambersham Biosciences).
Standard curves for each primer were prepared and RNA samples were reverse transcribed and screened for the genes of interest using the One Step RT-PCR kit (Qiagen Inc.) in the Roche Light Cycler. Each sample was run in duplicate, and the entire experiment was replicated resulting in two independent samples for each treatment.
MCF-7 cell cultures were maintained in medium with charcoal-stripped bovine serum for 24 hours prior to seeding in 6-well plates. Seeding densities varied with treatment time and were aimed at obtaining 80% confluent cell cultures at the time of harvesting; after 24, 48, or 72 hours of treatment. RNA isolation was performed as above.
MCF-7 cell cultures were maintained as above and seeded in 6-well plates at a low seeding density to obtain cell cultures that were 80% confluent at the end of the treatment. Cell cultures were treated with various concentrations of the cyclic peptide 24 hours after seeding and then every two days until harvesting the cells at day eight post-treatment RNA was isolated from each treatment.
MCF-7 cells were seeded in DC5 medium into each well of two 6-well plates and allowed to attach for 24 hours at which point the seeding medium was exchanged for serum-free medium for 24 hours. After 24 hours in serum-free medium the cells were re-fed with DC5-stripped medium containing either the vehicle control (DMSO) or GIP (from 1×10^−14 to 1×10^−5 M). Cells were re-fed every 48 hours until they were harvested after eight days of treatment and RNA was isolated. The entire procedure was repeated resulting in two independent RNA isolations. The quantity and quality of RNA isolated from each eight-day exposure for each of the concentrations are shown below. The quantity and quality of RNA obtained from these exposures is sufficient to determine the RNA expression levels of numerous genes.
MCF-7 cells were seeded at 1×10^6 cells per well in 6-well plates. The cells were incubated for 192 h in medium containing charcoal/dextran-treated BCS and test compounds described above in the proliferation assay. Peptide was administered each day for 8 days. Total RNA was isolated using the RNAqueous 4 PCR kit (Ambion Inc.) or Tri Reagent (Molecular Research Center, Inc.). The quality of the RNAs were assessed by electrophoresis on denaturing agarose gels and were quantified at 260 nm with the Genequant Pro (Amersham Biosciences).
Details for the quantitative RT-PCR protocol were previously reported. Fasco et al., “Quantitative RNA-polymerase chain reaction-DNA analysis by capillary electrophoresis and laser-induced fluorescence” Anal. Biochem. 224:140-147 (1995). Briefly, RNA samples were reverse transcribed and amplified using the One Step RT-PCR kit (Qiagen Inc.) in the Roche Light Cycler. Total RNA was diluted to […] for all genes assayed except for 28S, which was diluted to 0.001 mg/ml. Diluted total RNA ([…]) was incubated with Qiagen RT-PCR master mix and was reverse transcribed for 30 min at 50° C. Following reverse transcription, samples were heated for 15 min at 95° C. to activate the HotStarTaq DNA polymerase and to simultaneously inactivate the reverse transcriptase. Gozgit et al., “Differential action of polycyclic aromatic hydrocarbons on endogenous estrogen-responsive genes and on a transfected estrogen-responsive reporter in MCF-7 cells” Toxicol. & Appl. Pharmacol. 196:58-67 (2004).
Gene-specific primers ([…]) were used for the following: Cyclin D3, D1, CDK2, CDK4, CDK6, RB1, Ki67, Cyclin E1, Cyclin BI, and with B-Actin serving as housekeeping (control) gene. […]

human platelets = test: Platelet aggregation in human platelet-rich plasma; assay type: cell-based; design: % Inhibition Of Activity: Platelet Agg. ADP / % Inhibition Of Activity: Platelet Agg. AA / % Inhibition Of Activity: Platelet Agg. Coll: concentration or dose not given beside the values
Experimental: FIG. 9 presents exemplary data showing platelet aggregation modulation using 0.5 ml of normal human platelet-rich plasma (PRP) with varying amounts of P149 or P 149b using 2.5×10^6 platelets per reaction vessel.
FIG. 10 presents exemplary data showing platelet aggregation activation by arachidonic acid (AA) and collagen using P149-treated platelet suspensions • Panel A1: AA alone; • Panel A2: AA followed by epinephine (EPI) and EPI alone using P149b; • Panel A3: CD62P flow cytometry fluorescence quenching by P149; • Panel B1: collagen alone and collagen+P149; • Panel B2: collagen alone; collagen+P149a showing aggregation diminution.
GIP-derived peptide fragments and/or subfragments have been assayed for platelet aggregation by measuring light transmissions with an aggregometer using a stirred human platelet suspension. Kinlough-Rathbone et al., In: Platelet Aggregation in Measurements of Platelet Function, Eds. Harker L A, Zimmerman T S., Churchill Livingstone, London. pp. 64-87 (1983); and Whittle et al., “Specificity between the anti-aggregatory actions of prostacyclin, prostaglandin Eland D2 on platelets” In: Mechanisms of stimulus—response coupling in platelets, Eds. V. V. K., MacIntyre D E, Scully M F., New York and London: Plenum Press. pp. 109-115 (1985).
The ability of GIP and its fragments were individually examined for aggregation inhibition using citrated human platelet-rich plasma (PRP). The peptides were freshly dissolved in 0.15 M NaCl containing 2.5×10^6 platelets/ml. […]

Estrogen fetotoxicity = test: Estrogen fetotoxicity; design: concentration or dose not given beside the values; settings: in vivo

CC[C@H](C)[C@H](NC(=O)[C@@H]1CSSC[C@H](NC(=O)[C@H](C)NC(=O)[C@H](CC(C)C)NC(=O)[C@H](CC(C)C)NC(=O)[C@H](CCCCN)NC(=O)[C@H](CC(=O)O)NC(=O)[C@H](CCC(=O)O)NC(=O)[C@H](CO)NC(=O)[C@@H](N)CC(C)C)C(=O)NCC(=O)N[C@@H](CCC(=O)O)C(=O)NCC(=O)N[C@@H](C)C(=O)N[C@@H](C)C(=O)N[C@@H](CC(=O)O)C(=O)N[C@@H]([C@@H](C)CC)C(=O)N[C@@H]([C@@H](C)CC)C(=O)N[C@@H]([C@@H](C)CC)C(=O)NCC(=O)N[C@@H](Cc2c[nH]cn2)C(=O)N[C@@H](CC(C)C)C(=O)N1)C(=O)N[C@@H](CCCNC(=N)N)C(=O)N[C@@H](Cc1c[nH]cn1)C(=O)N[C@@H](CCC(=O)O)C(=O)N[C@@H](CCSC)C(=O)N[C@H](C(=O)N1CCC[C@H]1C(=O)N[C@H](C(=O)N[C@@H](CC(N)=O)C(=O)N1CCC[C@H]1C(=O)NCC(=O)N[C@H](C(=O)O)C(C)C)C(C)C)[C@@H](C)O [Cyclic GIP] (HELM PEPTIDE1{L.S.E.D.K.L.L.A.C.G.E.G.A.A.D.I.I.I.G.H.L.C.I.R.H.E.M.T.P.V.N.P.G.V}$PEPTIDE1,PEPTIDE1,9:R3-22:R3$$$V2.0; N-terminus and C-terminus assumed)
Growth suppression of MCF-7 cells (MCF-7 cells; 8 days, 10^−8 to 10^−12 M): 80 to 90% | Most effective concentration for growth suppression (MCF-7 cells; culture day-8, tested 10^−5 to 10^−14 M): 10^−8 M | mRNA levels of CDK2, CDK4, CDK6, Cyclin D1, CCND3, RB1 ([1]; 1×10^−7 M, 24 or 48 hours): did not result in significant changes in mRNA levels | Cyclin D1 mRNA, fold increase ([1]; 8 days): 1.71 fold | Ki67, cdk2, cdk6, and Cyclin B1 mRNA levels ([1]; 8 days): no effect | Rb1 mRNA, fold increase ([1]; 8 days): 2.4 fold | cdk4 mRNA, fold increase ([1]; 8 days): 2.4 fold | Expression of Cyclin D1, RB1 and CDK4 ([1]; 8 days, 0.1 nM (Cyclin D1 and RB1) or 1 pM (CDK4)): increased about two-fold | Cyclin-E mRNA, fold reduction ([1]; 8 days, 10^−8 to 10^−12 M): 2.1 to 4.6 fold | Expression levels of Cyclin E1 ([1]; 8 days, each of the five concentrations tested): greatly reduced | Ki67, cdk2, cdk6, and Cyclin B1 mRNA levels ([1]; 8 days, listed as cyclic peptide): little changes in mRNA expression levels | Cyclin E1 mRNA levels, Fold Decrease ([1]; concentration 1e−08 (10 nM)): 4.58 fold | Cyclin E1 mRNA levels, Fold Decrease ([1]; concentration 1e−09): 3.03 fold | Cyclin E1 mRNA levels, Fold Decrease ([1]; concentration 1e−10): 2.07 fold | Cyclin E1 mRNA levels, Fold Decrease ([1]; concentration 1e−11): 2.36 fold | Cyclin E1 mRNA levels, Fold Decrease ([1]; concentration 1e−12 (1 pM)): 3.26 fold

KDFIHKQGVALQTMKQELINLVKELVKPQIEAVADFSGLL (listed as Homo sapiens) [P192, reference compound]
% Inhibition Of Activity: Platelet Agg. ADP (human platelets; ADP-induced): 0% | % Inhibition Of Activity: Platelet Agg. AA (human platelets; arachidonic acid-induced): 0% | % Inhibition Of Activity: Platelet Agg. Coll (human platelets; collagen-induced): 0% | Inhibition (%) Of Platelet Aggregation, Adenosine Diphosphate (ADP) 2.5 μM (human platelets; peptide inhibitors 30 & 100 μM): No effect | Inhibition (%) Of Platelet Aggregation, Arachidonic Acid (AA) 0.3 mM (human platelets; peptide inhibitors 30 & 100 μM): No effect | Inhibition (%) Of Platelet Aggregation, Collagen (COLL) 2 μg/ml (human platelets; peptide inhibitors 30 & 100 μM): No effect | Inhibition (%) Of Platelet Aggregation, Epinephrine (human platelets; peptide inhibitors 30 & 100 μM): No effect | % Inhibition Of Activity: Estrogen Fetotoxicty (Estrogen fetotoxicity): 0%
